Assay results taken from ChEMBL document CHEMBL1143486, “The synthesis and 16S A-site rRNA recognition of carbohydrate-free aminoglycosides” (Bioorg Med Chem Lett, 2005).

Key:
Ribosomal RNA A-site = assay: Dissociation constant against 16S rRNA A-site; type: nucleic-acid assay
Nucleic Acid = assay: Inhibitory concentration against cell-free bacterial transcription / translation (T/T) assay; type: functional

Kd (Ribosomal RNA A-site)	IC50 (Nucleic Acid)	SMILES
10 µM	> 50 µM	COc1ccc(CO[C@H]2C(N)C[C@@H](N)[C@@H](O)C2OCCNCCCN)cc1 (stereo not given in full)
35 µM	> 50 µM	NC1C[C@@H](N)[C@@H](O)C(O)[C@H]1OCSc1ccnc2cc(C(F)(F)F)ccc12 (stereo not given in full)
1.5 µM	15 µM	NCCCNCCO[C@H]1C(O)[C@@H](OCSc2ccnc3cc(C(F)(F)F)ccc23)C(N)C[C@H]1N (stereo not given in full)
315 µM	> 50 µM	COc1ccc(CO[C@H]2C(N)C[C@@H](N)[C@@H](O)C2O)cc1 (stereo not given in full)
27 µM	> 50 µM	COc1ccc(CO[C@H]2C(N)C[C@@H](N)[C@@H](OCCNCCCN)C2O)cc1 (stereo not given in full)
88 µM	> 50 µM	CN(C)CCCNC(=O)COC1[C@@H](OCSc2ccnc3cc(C(F)(F)F)ccc23)C(N)C[C@@H](N)[C@H]1O (stereo not given in full)
2 µM	2.1 µM	NCCCNCCOC1[C@@H](OCSc2ccnc3cc(C(F)(F)F)ccc23)C(N)C[C@@H](N)[C@H]1O (stereo not given in full)
241 µM	> 50 µM	CN(C)CCCNC(=O)CO[C@H]1C(O)[C@@H](OCSc2ccnc3cc(C(F)(F)F)ccc23)C(N)C[C@H]1N (stereo not given in full)

SMILES	Kd (Ribosomal RNA A-site)	IC50 (Nucleic Acid)
NC[C@@H]1O[C@H](O[C@H]2[C@@H](O)[C@H](O[C@@H]3[C@@H](O)[C@H](N)C[C@H](N)[C@H]3O[C@H]3O[C@H](CO)[C@@H](O)[C@H](O)[C@H]3N)O[C@@H]2CO)[C@H](N)[C@@H](O)[C@@H]1O [PAROMOMYCIN]	0.1 µM	0.6 µM
NC[C@H]1O[C@H](O[C@H]2[C@H](O)[C@@H](O)[C@H](N)C[C@@H]2N)[C@H](N)[C@@H](O)[C@@H]1O [NEAMINE]	5 µM	> 50 µM
